Laboratory results from patent US20220409629A1, “BENZODIAZEPINE DERIVATIVES FOR TREATING A RESPIRATORY SYNCYTIAL VIRUS (RSV) INFECTION” (priority 2019, published 2022).

Assays:
[1] = Liver microsomal stability, human; assay type: in vitro ADME; conditions: pH 7.4; human liver microsomes, 0.5 mg/mL protein, 1 μM compound, NADPH; >80% remaining at 45 min denoted >140; read-out: Liver Microsomal Stability: t1/2 (min); human
Procedure: (§1) Compounds were subjected to the following assays to investigate liver microsomal stability, permeability and plasma protein binding.
(§2) Pooled liver microsomes were purchased from a reputable commercial supplier and stored at −80° C. prior to use. Microsomes (final protein concentration 0.5 mg/mL), 0.1 M phosphate buffer pH 7.4 and test compound (final substrate concentration 1 μM; final DMSO concentration 0.25%) were pre-incubated at 37° C. prior to the addition of NADPH (final concentration 1 mM) to initiate the reaction. The final incubation volume was 50 μL. A control incubation was included for each compound tested where 0.1 M phosphate buffer pH 7.4 was added instead of NADPH (minus NADPH). Two control compounds were included with each species. All incubations were performed singularly for each test compound. Each compound was incubated for 0, 5, 15, 30 and 45 min. The control (minus NADPH) was incubated for 45 min only. The reactions were stopped by transferring incubate into acetonitrile at the appropriate time points, in a 1:3 ratio. The termination plates are centrifuged at 3,000 rpm for 20 min at 4° C. to precipitate the protein. Following protein precipitation, the sample supernatants were combined in cassettes of up to 4 compounds, internal standard added, and samples analysed by LC-MS/MS. From a plot of ln peak area ratio (compound peak area/internal standard peak area) against time, the gradient of the line was determined. Subsequently, half-life (t1/2) and intrinsic clearance (CLint) were calculated.

RSV A2 = assay: RSV plaque reduction assay; assay type: cell-based, respiratory syncytial virus (RSV); conditions: human respiratory syncytial virus, HepG2; Hep-G2 cells, RSV A2, mean of at least two experiments
Procedure: Compounds were subjected to RSV plaque reduction assays according to the following protocol.
Hep-G2 cells (ECACC, 85011430) were passaged in flasks and seeded in 24-well plates in DMEM containing antibiotics and supplemented with 10% FBS. During inoculation and subsequent incubation, cells were cultured in DMEM containing 2% FBS. 100 plaque forming unit/well of RSV (RSV A2 ECACC, 0709161v) was mixed with eight serial dilutions of compound. Subsequently, 100 μL of the virus/compound mixtures was added to confluent Hep-G2 cell monolayers. The cells and virus/compound mixtures were incubated at 37° C. in a humidified 5% CO2 incubator for 2 h prior to removal of the inoculum and addition of 1 mL of overlay (DMEM containing 2% FBS and 0.8% CMC) containing compound dilutions. The cells and were incubated at 37° C. in a humidified 5% CO2 incubator for 2 days.
Cells were washed with PBS before adding 75/25% v/v EtOH/MeOH, for 3 min. Fixative was removed and plates were washed with PBS. A pre-titrated amount of the primary antibody was added in 200 μL PBS/2% milk powder, and plates incubated for 90 min at 37° C. The plates were washed 3 times with PBS/0.05% Tween20 before addition of rabbit anti-goat horse radish peroxidase in 200 μL PBS/2% milk powder, and incubated for 1 h at 37° C. Following three wash steps with PBS/0.05% Tween20, 200 μL ready-to-use TrueBlue was added and plates were incubated at rt for 10-15 min before washing with water. After removal of water, plates were air-dried in the dark.
Plates were scanned and analysed using the Immunospot S6 Macro analyser, which is equipped with BioSpot analysis software for counting immunostained plaques (virospots). Plaque counts were used to calculate % infection relative to the mean of the plaque count in the virus control wells for RSV. The EC50 value was calculated as 50% reduction in signal, respectively, by interpolation of inhibition curves fitted with a 4-parameter nonlinear regression with a variable slope in Dotmatics. Plaque EC50 and cell toxicity CC50 values are a mean of at least two experiments and figures are rounded to whole units.

Cell cytotoxicity CC50 = assay type: cell-based; conditions: human; mean of at least two experiments
[2] = Liver microsomal stability, dog; assay type: in vitro ADME; conditions: pH 7.4; dog liver microsomes, 0.5 mg/mL protein, 1 μM compound, NADPH; >80% remaining at 45 min denoted >140; read-out: Liver Microsomal Stability: t1/2 (min); dog
Procedure: as §1, §2

[3] = Liver microsomal stability, rat; assay type: in vitro ADME; conditions: pH 7.4; rat liver microsomes, 0.5 mg/mL protein, 1 μM compound, NADPH; >80% remaining at 45 min denoted >140; read-out: Liver Microsomal Stability: t1/2 (min); rat
Procedure: as §1, §2

| Compound | half-life [1] | EC50 (RSV A2) | CC50 (Cell cytotoxicity CC50) | half-life [2] | half-life [3] |
| --- | --- | --- | --- | --- | --- |
| CCn1ncc(C(=O)N[C@H]2N=C(c3ccccc3)c3ccccc3NC2=O)c1-c1ccc(NC)nc1F [Example 1, 1-Ethyl-5-[2-fluoro-6-(methylamino)pyridin-3-yl]-N-[(3S)-2-oxo-5-phenyl-1,3-dihydro-1,4-benzodiazepin-3-yl]pyrazole-4-carboxamide] | 48.1 min | 91 nM | > 25000 nM | 11.1 min | 24.4 min |
| CCNc1ccc(-c2c(C(=O)N[C@H]3N=C(c4ccccc4)c4ccccc4NC3=O)cnn2CC)c(F)n1 [Example 2, 1-Ethyl-5-[6-(ethylamino)-2-fluoropyridin-3-yl]-N-[(3S)-2-oxo-5-phenyl-1,3-dihydro-1,4-benzodiazepin-3-yl]pyrazole-4-carboxamide] | 44.4 min | 88 nM | > 25000 nM | 23.9 min | 30.3 min |
| CCn1ncc(C(=O)N[C@H]2N=C(c3ccccc3)c3ccccc3NC2=O)c1-c1ccc(NC2CCC2)nc1F [Example 5, 5-[6-(Cyclobutylamino)-2-fluoropyridin-3-yl]-1-ethyl-N-[(3S)-2-oxo-5-phenyl-1,3-dihydro-1,4-benzodiazepin-3-yl]pyrazole-4-carboxamide] | 50.1 min | 87 nM | > 25000 nM | 45.7 min | 47.4 min |
| CCn1ncc(C(=O)N[C@H]2N=C(c3ccccc3)c3ccccc3NC2=O)c1-c1ccc(NC2(C)CC2)nc1F [Example 6, 1-Ethyl-5-[2-fluoro-6-[(1-methylcyclopropyl)amino]pyridin-3-yl]-N-[(3S)-2-oxo-5-phenyl-1,3-dihydro-1,4-benzodiazepin-3-yl]pyrazole-4-carboxamide] | 23 min | 32 nM | > 25000 nM | 72.5 min | 31.5 min |
| CCn1ncc(C(=O)N[C@H]2N=C(c3ccccc3)c3ccccc3NC2=O)c1-c1ncc(NC2CC2)cc1F [Example 7, 5-[5-(Cyclopropylamino)-3-fluoropyridin-2-yl]-1-ethyl-N-[(3S)-2-oxo-5-phenyl-1,3-dihydro-1,4-benzodiazepin-3-yl]pyrazole-4-carboxamide] | 97 min | 69 nM | > 25000 nM | 85.8 min | 595 min |
| CCn1ncc(C(=O)N[C@H]2N=C(c3ccccc3)c3ccccc3NC2=O)c1-c1ncc(NC(C)C)cc1F [Example 8, 1-Ethyl-5-[3-fluoro-5-(propan-2-ylamino)pyridin-2-yl]-N-[(3S)-2-oxo-5-phenyl-1,3-dihydro-1,4-benzodiazepin-3-yl]pyrazole-4-carboxamide] | 193 min | 32 nM | > 25000 nM | 104 min | > 140 min |
| CCn1ncc(C(=O)N[C@H]2N=C(c3ccccc3)c3ccccc3NC2=O)c1-c1ccc(NC(C)C)cc1F [Example 9, 1-Ethyl-5-[2-fluoro-4-(propan-2-ylamino)phenyl]-N-[(3S)-2-oxo-5-phenyl-1,3-dihydro-1,4-benzodiazepin-3-yl]pyrazole-4-carboxamide] | 220 min | 73 nM | > 25000 nM | 89.1 min | 141 min |
| CCNc1ccc(-c2c(C(=O)N[C@H]3N=C(c4ccccc4)c4ccccc4NC3=O)c(C)nn2CC)c(F)n1 [Example 10, 1-Ethyl-5-[6-(ethylamino)-2-fluoropyridin-3-yl]-3-methyl-N-[(3S)-2-oxo-5-phenyl-1,3-dihydro-1,4-benzodiazepin-3-yl]pyrazole-4-carboxamide] | 48.1 min | 89 nM | > 25000 nM | 85.8 min | 20.2 min |
| CCn1ncc(C(=O)N[C@H]2N=C(c3ccccc3)c3cccc(F)c3NC2=O)c1-c1ncc(NC2CC2)cc1F [Example 12, 5-[5-(Cyclopropylamino)-3-fluoropyridin-2-yl]-1-ethyl-N-[(3S)-9-fluoro-2-oxo-5-phenyl-1,3-dihydro-1,4-benzodiazepin-3-yl]pyrazole-4-carboxamide] | 193 min | 45 nM | > 25000 nM | 68.5 min | 51.1 min |
| CC(C)Nc1ccc(-c2c(C(=O)N[C@H]3N=C(c4ccccc4)c4cccc(F)c4NC3=O)cnn2C2COC2)c(F)n1 [Example 41, N-[(3S)-9-Fluoro-2-oxo-5-phenyl-1,3-dihydro-1,4-benzodiazepin-3-yl]-5-[2-fluoro-6-(propan-2-ylamino)pyridin-3-yl]-1-(oxetan-3-yl)pyrazole-4-carboxamide] |  | 91 nM | > 25000 nM |  |  |
| CC(C)c1ccc(-c2c(C(=O)N[C@H]3N=C(c4ccccc4)c4cccc(F)c4NC3=O)cnn2C2CCOCC2)c(F)c1 [Example 45, 5-(2-Fluoro-4-propan-2-ylphenyl)-1-(oxan-4-yl)-N-[(3S)-9-fluoro-2-oxo-5-phenyl-1,3-dihydro-1,4-benzodiazepin-3-yl]pyrazole-4-carboxamide] |  | 38 nM | > 25000 nM |  |  |
| CCc1ccc(-c2c(C(=O)N[C@H]3N=C(c4ccccc4)c4ccccc4NC3=O)cnn2C2CCOCC2)c(F)c1 [Example 46, 5-(4-Ethyl-2-fluorophenyl)-1-(oxan-4-yl)-N-[(3S)-2-oxo-5-phenyl-1,3-dihydro-1,4-benzodiazepin-3-yl]pyrazole-4-carboxamide] |  | 34 nM | > 25000 nM |  |  |
| CCc1ccc(-c2c(C(=O)N[C@H]3N=C(c4ccccc4)c4ccccc4NC3=O)cnn2C2CCOCC2)c(F)n1 [Example 52, 5-(6-Ethyl-2-fluoropyridin-3-yl)-1-(oxan-4-yl)-N-[(3S)-2-oxo-5-phenyl-1,3-dihydro-1,4-benzodiazepin-3-yl]pyrazole-4-carboxamide] |  | 87 nM | > 25000 nM |  |  |
| CCOc1nn(CC)c(-c2ccccc2F)c1C(=O)N[C@H]1N=C(c2ccccc2)c2ccccc2NC1=O [Example 54, 3-Ethoxy-1-ethyl-5-(2-fluorophenyl)-N-[(3S)-2-oxo-5-phenyl-1,3-dihydro-1,4-benzodiazepin-3-yl]pyrazole-4-carboxamide] |  | 51 nM | > 25000 nM |  |  |
| O=C(N[C@H]1N=C(c2ccccc2)c2cccc(F)c2NC1=O)c1cnn(C2CCOCC2)c1-c1ccc(NC2CC2)nc1 [Example 56, 5-[6-(Cyclopropylamino)pyridin-3-yl]-1-(oxan-4-yl)-N-[(3S)-9-fluoro-2-oxo-5-phenyl-1,3-dihydro-1,4-benzodiazepin-3-yl]pyrazole-4-carboxamide] |  | 78 nM | > 25000 nM |  |  |
| CC(C)Nc1ccc(-c2c(C(=O)N[C@H]3N=C(c4ccccc4)c4cccc(F)c4NC3=O)cnn2C2CCOCC2)cn1 [Example 58, 1-(Oxan-4-yl)-5-[6-(propan-2-ylamino)pyridin-3-yl]-N-[(3S)-9-fluoro-2-oxo-5-phenyl-1,3-dihydro-1,4-benzodiazepin-3-yl]pyrazole-4-carboxamide] |  | 99 nM | > 25000 nM |  |  |
| CCc1ccc(-c2c(C(=O)N[C@H]3N=C(c4ccccc4)c4cccc(F)c4NC3=O)cnn2C2CCN(C)CC2)c(F)c1 [Example 59, 5-(4-Ethyl-2-fluorophenyl)-1-(1-methylpiperidin-4-yl)-N-[(3S)-9-fluoro-2-oxo-5-phenyl-1,3-dihydro-1,4-benzodiazepin-3-yl]pyrazole-4-carboxamide] |  | 107 nM | 15200 nM |  |  |
